Experimental data published in patent US20090055945A1, “Method for Producing Nuclear-Transplanted Egg” (priority 2005, published 2009).

Columns and labels:
[1] = system: oocytes injected with mature sperm (ICSI); assay: Paternal genome DNA methylation, mature sperm injection (ICSI); format: cell-based, mouse; conditions: 10 μM 5-azacytidine, 20 hours
Method: The oocytes injected with the nuclear domains of round spermatids obtained by ROSI were cultured for 20 hours in the presence of 20 ng/ml of demecolcine in a medium containing 10 μM 5-azacytidine (5-aza) or 500 nM TSA as an anti-methylation agent. Similarly, injection of mature sperms was carried out (ICSI (intracytoplasmic sperm injection)). Specifically, heads of sperms were separated from the tails by applying pulses to the head-tail junctions by means of a piezo-driven pipette (PrimeTech), and injected into oocytes. The oocytes were not subjected to activation in this case. […]
For quantitative analysis of pronuclear DNA methylation levels, fluorescence images were subjected to densitometric analysis using the program Image-J from the National Institute of Health (http://rsb.info.nih.gov/ij/). For each pronucleus, the relative intensity of methylation of the paternal genome was calculated as a percentage of the fluorescence intensity of the maternal genome. In Table 3, data with (b) and without (a) anti-methylation agent were statistically analyzed by Scheffe tests for multiple mean comparisons using the statistical program SPSS version 12.0 (SPSS Inc.). […]

[2] = system: oocytes injected with nuclear domains of round spermatids (ROSI); assay: Paternal genome DNA methylation, spermatid injection (ROSI); format: cell-based, mouse; conditions: Spermatid (ROSI); 10 μM 5-azacytidine, 20 hours
Method: The oocytes injected with the nuclear domains of round spermatids obtained by ROSI were cultured for 20 hours in the presence of 20 ng/ml of demecolcine in a medium containing 10 μM 5-azacytidine (5-aza) or 500 nM TSA as an anti-methylation agent. Similarly, injection of mature sperms was carried out (ICSI (intracytoplasmic sperm injection)). Specifically, heads of sperms were separated from the tails by applying pulses to the head-tail junctions by means of a piezo-driven pipette (PrimeTech), and injected into oocytes. The oocytes were not subjected to activation in this case.
The cultured oocytes injected with nuclei were fixed in PBS containing 4% paraformaldehyde at 4° C. overnight, washed in PBS containing 0.1% polyvinyl alcohol (PVA), and blocked in PBS containing 3% bovine serum albumin (BSA) and 0.2% Triton X-100 at 4° C. overnight. Subsequent steps were carried out at room temperature. The fixed oocytes injected with nuclei were permeabilized by treating with 0.2% Triton X-100 in PBS at room temperature. The oocytes were then treated with 2N HCl at room temperature for 50 minutes, neutralized in 100 mM Tris-HCl buffer (pH 8.0) (Non-patent Document 15), and extensively washed with PBS containing 1% BSA.
Next, incubation. with an anti-5-methylcytidine antibody (Eurogentec) in PBS containing 0.1% PVA was carried out for 2 to 3 hours. After extensively being washed, oocytes were stained with Alexa Flour-488 secondary antibody (Molecular Probes), stained with 5 μg/ml 4′,6′-diamidino-2-phenylindole (DAPI) for 30 minutes, and mounted using Vectashield (Vector Laboratory). The specimens were observed using Olympus BX51 microscope (Olympus). All images were captured with DP70 Olympus digital camera using Olympus Analysis software to apply colors to DAPI-stained DNA and merged images.
For quantitative analysis of pronuclear DNA methylation levels, fluorescence images were subjected to densitometric analysis using the program Image-J from the National Institute of Health (http://rsb.info.nih.gov/ij/). For each pronucleus, the relative intensity of methylation of the paternal genome was calculated as a percentage of the fluorescence intensity of the maternal genome. In Table 3, data with (b) and without (a) anti-methylation agent were statistically analyzed by Scheffe tests for multiple mean comparisons using the statistical program SPSS version 12.0 (SPSS Inc.). All percentile data were subjected to arcsine transformation prior to the statistical analysis.

[3] = system: immortalized bovine mammary epithelial cells (MECL) or bovine fetal fibroblasts (BFF); conditions: MECL or BFF treated before nuclear transfer; Non-patent Document 2; cited from earlier work
[4] = system: nuclear transfer oocytes (nuclei from cumulus cells in enucleated oocytes); assay: Expanded blastocyst formation of nuclear transfer oocytes (cumulus cell nuclei); format: cell-based, mouse; conditions: 5 μM apicidin
Method: Production of cloned mice including production of nuclear transfer embryos was carried out according to the method as described in Non-patent Document 5. Briefly, pregnant mare serum gonadotrophin (PMSG) was first administered to 8-weeks-old female B6D2F1 (C57BL/6 XDBA/2) mice (Japan SLC) for superovulation treatment. Human choriogonadotropin (hCG) was administered after 48 hours. Oocytes were collected after 16 hours. Nuclei were removed from the collected unfertilized oocytes in the presence of 5 μg/ml of cytochalasin B using a micromanipulator (enucleation).
Next, cell membranes of cumulus cells from a B6D2F1 mouse as donor somatic cells suspended in a 1.2% polyvinylpyrrolidone (PVP) solution were destroyed using an injection pipette, and the nuclei were injected into the enucleated oocytes using a micromanipulator (nuclear transfer). A piezo drive apparatus (Prime Tech) was used to generate piezo-pulses for penetration of zona pellucida or cell membranes which is required for injection of nuclei.
The thus obtained nuclear transfer oocytes were cultured in a CO2 incubator at 37° C. for 30 minutes to 1 hour. The oocytes were then transferred to an oocyte activation solution (Ca^2+-free CZB medium supplemented with 5 mM strontium chloride (SrCl2) and 5 μg/ml of cytochalasin B (Non-patent Document 10)) containing 0.5, 5, 50 or 500 nM trichostatin A (hereinafter referred to as TSA) to artificially activate the oocytes and initiate the development. Activation of oocytes was confirmed 6 hours after the initiation of activation using pronuclei formation as an index. Activated nuclear transfer oocytes were transferred to KSOM medium (Specialty Media) containing TSA at the same concentration, and cultured for further 14 hours (for 20 hours after the initiation of activation) in the medium. For a control, dimethyl sulfoxide (DMSO), which was used for dissolving TSA, was used in place of TSA to produce the same concentration.
Then, the nuclear transfer embryos at the 2-cell stage were cultured in KSOM medium without TSA until 96 hours after the initiation of activation, and development into expanded blastocysts was observed. The development into expanded blastocyst was confirmed by culturing for 96 hours after the initiation of activation and then observing under a microscope one in which the volume of embryo was increased to result in expansion of the blastocyst and thinning of zona pellucida among blastocysts having blastocoels. 80 or more embryos were examined in each of the experimental groups of the respective concentrations.
The ratio of the developed blastocysts to the number of nuclear transfer oocytes used (blastocyst formation rate (%)) was determined. The ratio of the developed expanded blastocysts to the number of oocytes that initiated cleavage (i.e., developed into the 2-cell stage) among the reconstructed nuclear transfer oocytes (blastocyst formation rate (%)) was determined.
Nuclear transfer oocytes were produced by injecting nuclei from cumulus cells into enucleated oocytes according to the method as described in Example 1, cultured in KSOM medium containing TSA at a concentration of 5 nM for various periods of time (for 0, 24, 48 or 72 hour(s) from the initiation of activation), and then cultured in KSOM medium without TSA until 96 hours after the initiation of activation. Then, development into expanded blastocysts was observed and the blastocyst formation rate was determined. […]

Structure (SMILES): Nc1ncn([C@@H]2O[C@H](CO)[C@@H](O)[C@H]2O)c(=O)n1 [5-aza, 5-azacytidine]
- Ratio of methylation level of paternal genome to maternal genome (%) [1]: 17.5^b %
- Ratio of methylation level of paternal genome to maternal genome (%) [2]: 54.9^b %

Structure (SMILES): CCCC(=O)[O-].[Na+] [sodium butyrate]
- blastocyst development rate [3]: increased

Structure (SMILES): CCC(=O)CCCCC[C@@H]1NC(=O)[C@H]2CCCCN2C(=O)[C@H]([C@@H](C)CC)NC(=O)[C@H](Cc2cn(OC)c3ccccc23)NC1=O [apicidin]
- increase in blastocyst formation rate vs control [4]: about 2 fold
- blastocyst formation rate ([4]; method of Example 1): 69.0%
